Assay results from paper PMC6943664 (Molecules, 2019).
Read-outs that look alike come from different tables or passages of the source.

Experiments:
[1] = design: method as in PMID 19810674; details: cited from earlier work
[2] = target: T1, butyrylcholinesterase from equine serum (Equus caballus, UniProt P81908); assay: biochemical; assay type: biochemical; details: for inhibition at 10 µM: read-out: BChE % inhibition at 10 μM
T1 construct: butyrylcholinesterase from equine serum; purchased Sigma Aldrich, Milan, Italy; host or cells: equine serum
T1 sequence (P81908 whole entry): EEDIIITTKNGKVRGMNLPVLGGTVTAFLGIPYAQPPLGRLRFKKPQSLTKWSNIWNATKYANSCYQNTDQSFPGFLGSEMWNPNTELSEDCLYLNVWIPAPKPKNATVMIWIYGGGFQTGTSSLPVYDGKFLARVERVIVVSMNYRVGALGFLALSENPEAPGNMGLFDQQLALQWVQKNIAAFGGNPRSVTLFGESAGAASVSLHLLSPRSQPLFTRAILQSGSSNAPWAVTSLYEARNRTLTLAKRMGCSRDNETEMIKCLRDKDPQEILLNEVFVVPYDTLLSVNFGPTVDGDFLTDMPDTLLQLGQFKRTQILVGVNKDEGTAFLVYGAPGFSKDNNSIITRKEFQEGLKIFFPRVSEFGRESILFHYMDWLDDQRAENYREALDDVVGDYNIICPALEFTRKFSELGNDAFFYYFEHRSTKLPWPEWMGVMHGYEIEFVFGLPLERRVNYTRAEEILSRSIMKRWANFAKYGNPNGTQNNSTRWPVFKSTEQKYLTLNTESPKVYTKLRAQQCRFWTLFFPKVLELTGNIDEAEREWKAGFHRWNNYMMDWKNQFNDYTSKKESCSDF
Experimental: (§1) In vitro enzymatic screening toward ChEs was carried out according to the known Ellman’s protocol, by using eeAChE and esBChE as highly homologous and cheaper surrogates for human enzymes. The enzyme inhibition assays on human MAOs were performed by applying already reported methods.
(§2) All enzymes and reagents were purchased from Sigma Aldrich, Milan, Italy. Inhibition of human recombinant MAO A and B was assayed by monitoring the fluorescence of 4-hydroxyquinoline produced from the oxidation of substrate kynuramine, following a previously published method. Acetylcholinesterase from electric eel and butyrylcholinesterase from equine serum were used in the Ellman’s spectrophotometric method as already described. In all cases, a 96-well plate procedure was used with an Infinite M1000 Pro plate reader (Tecan, Cernusco sul Naviglio, Italy). Inhibition values were determined as IC50 values by statistical analysis using Prism (GraphPad Prism version 5.00 for Windows, GraphPad Software, San Diego, CA, USA).

[3] = target: T2, Acetylcholinesterase from electric eel (Electrophorus electricus, UniProt O42275); assay: biochemical; assay type: biochemical; details: AChE from electric eel; mean ±SEM of three
T2 construct: purchased Sigma Aldrich, Milan, Italy
T2 sequence (O42275 24-633): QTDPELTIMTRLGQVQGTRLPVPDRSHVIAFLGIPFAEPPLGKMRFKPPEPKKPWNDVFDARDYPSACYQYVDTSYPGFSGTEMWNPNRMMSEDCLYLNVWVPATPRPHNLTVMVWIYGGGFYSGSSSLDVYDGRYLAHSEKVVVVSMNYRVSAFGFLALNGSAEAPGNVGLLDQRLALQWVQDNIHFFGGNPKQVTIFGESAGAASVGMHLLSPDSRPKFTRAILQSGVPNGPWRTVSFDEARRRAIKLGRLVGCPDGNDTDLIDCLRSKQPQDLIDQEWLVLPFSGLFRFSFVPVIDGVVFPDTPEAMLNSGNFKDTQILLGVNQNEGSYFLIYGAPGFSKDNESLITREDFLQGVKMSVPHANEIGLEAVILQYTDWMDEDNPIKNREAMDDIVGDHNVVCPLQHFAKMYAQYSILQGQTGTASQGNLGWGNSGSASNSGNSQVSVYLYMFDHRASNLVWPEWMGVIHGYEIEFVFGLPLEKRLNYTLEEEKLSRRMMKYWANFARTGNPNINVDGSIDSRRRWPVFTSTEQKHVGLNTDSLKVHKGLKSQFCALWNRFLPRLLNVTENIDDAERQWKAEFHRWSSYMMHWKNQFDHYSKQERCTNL
Experimental: as §1, §2

CYP450s = test system: CYP450s; design: method as in PMID 19810674; details: cited from earlier work
human recombinant MAO A = target: T3, human recombinant MAO A (Homo sapiens, UniProt P21397); assay: biochemical
T3 construct: purchased Sigma Aldrich, Milan, Italy
T3 sequence (P21397 1-527): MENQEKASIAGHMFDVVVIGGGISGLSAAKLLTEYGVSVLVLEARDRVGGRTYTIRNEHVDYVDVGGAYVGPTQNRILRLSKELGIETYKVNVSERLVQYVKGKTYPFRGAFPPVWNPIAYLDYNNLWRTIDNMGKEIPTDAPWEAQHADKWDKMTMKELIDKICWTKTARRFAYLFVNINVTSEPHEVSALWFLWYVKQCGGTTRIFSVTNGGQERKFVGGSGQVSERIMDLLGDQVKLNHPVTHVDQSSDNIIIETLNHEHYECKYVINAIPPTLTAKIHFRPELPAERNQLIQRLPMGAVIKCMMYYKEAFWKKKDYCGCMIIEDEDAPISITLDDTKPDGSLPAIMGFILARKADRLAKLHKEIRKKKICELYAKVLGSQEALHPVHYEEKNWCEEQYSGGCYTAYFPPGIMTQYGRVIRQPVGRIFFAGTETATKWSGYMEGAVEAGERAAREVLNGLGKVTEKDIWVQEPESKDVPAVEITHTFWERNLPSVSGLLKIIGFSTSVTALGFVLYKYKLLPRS
Experimental: as §1, §2

rat MAO B = test system: rat MAO B; design: method as in PMID 19810674; details: cited from earlier work
human recombinant MAO B = target: T4, human recombinant MAO B (Homo sapiens, UniProt P27338); assay: Human recombinant MAO B inhibition (kynuramine fluorescence); assay type: biochemical; details: for IC50: mean ±SEM of three independent experiments
T4 construct: purchased Sigma Aldrich, Milan, Italy
T4 sequence (P27338 1-520): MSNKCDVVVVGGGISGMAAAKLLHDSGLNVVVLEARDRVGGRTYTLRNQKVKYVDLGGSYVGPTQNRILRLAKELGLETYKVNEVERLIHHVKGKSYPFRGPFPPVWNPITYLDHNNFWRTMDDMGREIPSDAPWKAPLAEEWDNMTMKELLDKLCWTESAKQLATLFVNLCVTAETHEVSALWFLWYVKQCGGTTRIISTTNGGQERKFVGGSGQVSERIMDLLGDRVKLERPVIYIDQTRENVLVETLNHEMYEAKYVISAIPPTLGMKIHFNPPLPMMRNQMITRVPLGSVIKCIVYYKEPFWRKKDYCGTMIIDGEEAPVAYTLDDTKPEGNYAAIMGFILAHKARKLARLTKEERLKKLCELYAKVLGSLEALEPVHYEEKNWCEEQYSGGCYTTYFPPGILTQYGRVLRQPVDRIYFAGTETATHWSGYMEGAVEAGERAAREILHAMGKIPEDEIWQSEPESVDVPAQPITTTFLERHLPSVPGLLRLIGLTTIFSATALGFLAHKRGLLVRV
Experimental: as §1, §2

eeAChE = target: T5, eeAChE (Electrophorus electricus, UniProt O42275); assay: Inhibition kinetics of eeAChE (Lineweaver-Burk); assay type: biochemical; details: for mechanism of inhibition toward eeAChE: Lineweaver–Burk plots; for Ki: eeAChE, inhibitor 0 to 5 μM, acetylthiocholine 33 to 200 μM
T5 construct: purchased Sigma Aldrich, Milan, Italy
T5 sequence (O42275 24-633): as the sequence (O42275 24-633) above
Experimental: as §2, with “Enzyme kinetics were used as tool for investigating the inhibition mechanism toward AChE. Compounds 8, bearing a meta-bromobenzyloxy substituent at coumarin C7, and 24, branched with a glycinamide chain as the variation at position 4, were chosen as prototypes bearing different head-or-tail modification schemes. […]. All” for “All”, “USA). […]” for “USA).”

[4] = human recombinant MAO, mean ±SEM of three independent experiments, read-out: MAO A IC50
[5] = human recombinant MAO, read-out: MAO B IC50

Compound | blood–brain barrier penetration [1] | inhibition at 10 µM [2] [%] | IC50 [3] [nM] | CYP450s liability (CYP450s) | IC50 (human recombinant MAO A) [nM] | SI, IC50 MAO A/IC50 MAO B (rat MAO B; rat MAOs) | IC50 (rat MAO B; rat enzyme) [nM] | IC50 (human recombinant MAO B; MAO B IC50, human recombinant MAO) [nM] | SI (MAO A/MAO B selectivity) (human recombinant MAO B; human MAOs) | mechanism of inhibition toward eeAChE (eeAChE) | Ki (eeAChE) [nM] | IC50 ([2]; BChE from equine serum, mean ±SEM of three) [nM] | IC50 (human recombinant MAO A; [4]) [nM] | IC50 (human recombinant MAO B; [5]) [nM]
CNCc1cc(=O)oc2cc(OCc3cccc(Cl)c3)ccc12 [compound 3, 7-[(3-chlorobenzyl)oxy]-4-[(methylamino)methyl]-2H-chromen-2-one] | rapid | 43 ± 5 | 6200 ± 700 | poor | 650 ± 20 | 457 | 13 | 3.9 ± 0.8 | 167 | – | – | – | – | –
CNCc1cc(=O)oc2cc(OCc3cccc(Br)c3)ccc12 [compound 8, 7-[(3-bromobenzyl)oxy]-4-[(methylamino)methyl]-2H-chromen-2-one] | – | – | 2000 ± 40 | – | – | – | – | – | – | mixed-type | 2910 | 2900 ± 400 | 2310 ± 40 | 2.2 ± 0.1
NC(=O)CNCc1cc(=O)oc2cc(OCc3cccc(Cl)c3)ccc12 [compound 24, N^2-({7-[(3-chlorobenzyl)oxy]-2-oxo-2H-chromen-4-yl}methyl)glycinamide] | – | 13 ± 2 | 2200 ± 700 | – | – | – | – | – | – | mixed-type | 3630 | – | 77 ± 14 | 61 ± 13
